Assay results reported in publication PMC4858680, “A platinum-based hybrid drug design approach to circumvent acquired resistance to molecular targeted tyrosine kinase inhibitors” (Scientific Reports, 2016).

Assays:
KIT(A829P) = KIT(A829P) (Homo sapiens, UniProt P10721, A829P); test: biochemical; conditions: read-out: Percent control
KIT(V559D) = KIT(V559D) (Homo sapiens, UniProt P10721, V559D); conditions: 10 μM
TYRO3 = molecular target: T1, TYRO3 (Homo sapiens, UniProt Q06418); type: binding; conditions: for Percent control: 10 μM
T1 construct: purchased DiscoveRx Corporation (KINOMEscan service)
T1 sequence (Q06418 41-890): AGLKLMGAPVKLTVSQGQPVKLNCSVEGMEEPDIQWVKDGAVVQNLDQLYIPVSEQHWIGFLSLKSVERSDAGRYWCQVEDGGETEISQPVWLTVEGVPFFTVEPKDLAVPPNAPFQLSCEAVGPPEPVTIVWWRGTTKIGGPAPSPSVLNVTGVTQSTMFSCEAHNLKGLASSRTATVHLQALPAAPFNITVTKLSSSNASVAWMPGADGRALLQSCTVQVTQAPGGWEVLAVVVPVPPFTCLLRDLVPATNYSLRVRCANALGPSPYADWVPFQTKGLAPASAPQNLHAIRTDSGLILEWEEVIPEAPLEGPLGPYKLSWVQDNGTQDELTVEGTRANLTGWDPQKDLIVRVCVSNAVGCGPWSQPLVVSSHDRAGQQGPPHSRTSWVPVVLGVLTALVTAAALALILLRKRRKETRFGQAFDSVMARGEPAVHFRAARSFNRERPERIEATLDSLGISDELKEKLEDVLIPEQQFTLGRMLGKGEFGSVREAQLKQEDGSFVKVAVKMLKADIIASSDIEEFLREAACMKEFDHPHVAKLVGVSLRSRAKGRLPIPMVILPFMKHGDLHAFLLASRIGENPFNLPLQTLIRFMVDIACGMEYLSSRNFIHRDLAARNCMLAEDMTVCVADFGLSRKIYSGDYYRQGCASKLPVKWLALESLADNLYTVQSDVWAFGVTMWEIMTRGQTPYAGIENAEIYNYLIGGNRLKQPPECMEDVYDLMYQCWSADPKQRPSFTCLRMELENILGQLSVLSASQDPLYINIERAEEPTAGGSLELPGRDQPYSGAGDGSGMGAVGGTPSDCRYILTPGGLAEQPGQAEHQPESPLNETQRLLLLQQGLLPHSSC

AXL = molecular target: T2, AXL (Homo sapiens, UniProt P30530); conditions: 10 μM
T2 sequence (P30530 26-894): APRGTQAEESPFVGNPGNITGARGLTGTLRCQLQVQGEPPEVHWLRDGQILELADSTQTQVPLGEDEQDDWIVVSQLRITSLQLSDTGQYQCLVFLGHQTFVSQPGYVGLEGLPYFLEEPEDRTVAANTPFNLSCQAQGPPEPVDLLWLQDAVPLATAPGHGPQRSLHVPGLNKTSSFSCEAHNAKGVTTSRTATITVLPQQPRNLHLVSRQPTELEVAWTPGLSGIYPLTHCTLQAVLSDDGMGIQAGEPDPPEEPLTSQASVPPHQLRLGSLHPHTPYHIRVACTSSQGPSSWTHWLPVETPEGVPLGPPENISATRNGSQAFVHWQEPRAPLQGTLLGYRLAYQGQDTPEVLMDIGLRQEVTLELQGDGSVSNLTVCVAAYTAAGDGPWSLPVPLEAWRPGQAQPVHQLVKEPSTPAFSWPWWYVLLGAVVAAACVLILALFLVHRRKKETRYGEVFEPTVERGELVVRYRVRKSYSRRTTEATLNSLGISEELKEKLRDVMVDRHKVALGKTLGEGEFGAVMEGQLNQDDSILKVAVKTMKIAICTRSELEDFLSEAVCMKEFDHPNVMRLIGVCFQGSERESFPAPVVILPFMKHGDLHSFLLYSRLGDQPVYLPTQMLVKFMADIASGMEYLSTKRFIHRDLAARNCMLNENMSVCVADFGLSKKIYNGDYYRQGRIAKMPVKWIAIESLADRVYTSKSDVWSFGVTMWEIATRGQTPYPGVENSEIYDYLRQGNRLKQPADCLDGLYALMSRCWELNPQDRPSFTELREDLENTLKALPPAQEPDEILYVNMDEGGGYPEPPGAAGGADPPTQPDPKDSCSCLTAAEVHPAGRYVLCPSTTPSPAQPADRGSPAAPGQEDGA

FGFR3 = FGFR3 (Homo sapiens, UniProt P22607); conditions: 10 μM
Sequence of FGFR3 (P22607 23-806): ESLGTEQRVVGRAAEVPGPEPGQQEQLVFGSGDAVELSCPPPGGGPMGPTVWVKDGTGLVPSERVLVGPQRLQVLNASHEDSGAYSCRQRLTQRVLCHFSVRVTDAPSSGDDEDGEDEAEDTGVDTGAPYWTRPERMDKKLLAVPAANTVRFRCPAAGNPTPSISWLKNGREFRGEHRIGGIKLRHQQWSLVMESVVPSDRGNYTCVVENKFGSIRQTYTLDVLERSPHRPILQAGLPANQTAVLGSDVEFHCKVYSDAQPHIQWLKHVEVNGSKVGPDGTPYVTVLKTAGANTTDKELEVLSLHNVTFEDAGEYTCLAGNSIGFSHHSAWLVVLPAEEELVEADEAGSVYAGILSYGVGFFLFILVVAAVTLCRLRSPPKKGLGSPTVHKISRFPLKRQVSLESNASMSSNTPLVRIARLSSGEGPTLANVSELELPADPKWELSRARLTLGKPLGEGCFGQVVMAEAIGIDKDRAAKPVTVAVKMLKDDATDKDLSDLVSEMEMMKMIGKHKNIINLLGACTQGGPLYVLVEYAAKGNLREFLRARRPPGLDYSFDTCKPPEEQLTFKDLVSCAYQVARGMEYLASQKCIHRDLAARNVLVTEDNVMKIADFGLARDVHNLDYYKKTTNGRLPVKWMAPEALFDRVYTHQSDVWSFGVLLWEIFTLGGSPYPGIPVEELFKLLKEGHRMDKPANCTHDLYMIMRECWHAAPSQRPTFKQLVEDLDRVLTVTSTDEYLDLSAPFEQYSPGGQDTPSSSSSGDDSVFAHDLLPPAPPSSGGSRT

EPHB1 = molecular target: T3, EPHB1 (Homo sapiens, UniProt P54762); conditions: 10 μM
T3 sequence (P54762 18-984): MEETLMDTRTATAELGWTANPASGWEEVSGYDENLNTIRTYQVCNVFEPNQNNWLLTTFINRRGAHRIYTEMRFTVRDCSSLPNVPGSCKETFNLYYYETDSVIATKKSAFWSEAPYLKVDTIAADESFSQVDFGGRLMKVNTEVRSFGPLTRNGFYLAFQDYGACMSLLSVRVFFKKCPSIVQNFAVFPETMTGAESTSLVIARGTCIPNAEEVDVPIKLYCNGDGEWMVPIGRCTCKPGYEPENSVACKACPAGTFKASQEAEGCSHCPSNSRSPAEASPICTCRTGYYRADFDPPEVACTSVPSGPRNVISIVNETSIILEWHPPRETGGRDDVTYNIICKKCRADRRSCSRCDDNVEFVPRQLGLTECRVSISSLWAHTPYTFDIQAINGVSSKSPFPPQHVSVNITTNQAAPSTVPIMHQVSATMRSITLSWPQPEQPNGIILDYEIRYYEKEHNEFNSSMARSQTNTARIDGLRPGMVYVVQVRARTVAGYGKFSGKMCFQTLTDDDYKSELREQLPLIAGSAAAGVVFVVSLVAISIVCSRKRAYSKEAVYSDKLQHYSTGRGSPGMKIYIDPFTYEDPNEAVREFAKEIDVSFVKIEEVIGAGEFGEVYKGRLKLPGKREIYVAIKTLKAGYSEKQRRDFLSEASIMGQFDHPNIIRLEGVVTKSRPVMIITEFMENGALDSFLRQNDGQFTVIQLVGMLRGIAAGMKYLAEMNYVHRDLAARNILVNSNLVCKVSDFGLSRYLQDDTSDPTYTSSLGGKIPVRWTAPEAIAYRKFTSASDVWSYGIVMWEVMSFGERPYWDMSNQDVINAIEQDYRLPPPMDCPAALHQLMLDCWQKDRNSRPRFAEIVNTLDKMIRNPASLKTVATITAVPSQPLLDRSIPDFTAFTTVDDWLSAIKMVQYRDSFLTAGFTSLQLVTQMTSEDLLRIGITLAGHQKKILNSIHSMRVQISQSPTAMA

Sequence of KIT(A829P) (P10721 26-976 A829P): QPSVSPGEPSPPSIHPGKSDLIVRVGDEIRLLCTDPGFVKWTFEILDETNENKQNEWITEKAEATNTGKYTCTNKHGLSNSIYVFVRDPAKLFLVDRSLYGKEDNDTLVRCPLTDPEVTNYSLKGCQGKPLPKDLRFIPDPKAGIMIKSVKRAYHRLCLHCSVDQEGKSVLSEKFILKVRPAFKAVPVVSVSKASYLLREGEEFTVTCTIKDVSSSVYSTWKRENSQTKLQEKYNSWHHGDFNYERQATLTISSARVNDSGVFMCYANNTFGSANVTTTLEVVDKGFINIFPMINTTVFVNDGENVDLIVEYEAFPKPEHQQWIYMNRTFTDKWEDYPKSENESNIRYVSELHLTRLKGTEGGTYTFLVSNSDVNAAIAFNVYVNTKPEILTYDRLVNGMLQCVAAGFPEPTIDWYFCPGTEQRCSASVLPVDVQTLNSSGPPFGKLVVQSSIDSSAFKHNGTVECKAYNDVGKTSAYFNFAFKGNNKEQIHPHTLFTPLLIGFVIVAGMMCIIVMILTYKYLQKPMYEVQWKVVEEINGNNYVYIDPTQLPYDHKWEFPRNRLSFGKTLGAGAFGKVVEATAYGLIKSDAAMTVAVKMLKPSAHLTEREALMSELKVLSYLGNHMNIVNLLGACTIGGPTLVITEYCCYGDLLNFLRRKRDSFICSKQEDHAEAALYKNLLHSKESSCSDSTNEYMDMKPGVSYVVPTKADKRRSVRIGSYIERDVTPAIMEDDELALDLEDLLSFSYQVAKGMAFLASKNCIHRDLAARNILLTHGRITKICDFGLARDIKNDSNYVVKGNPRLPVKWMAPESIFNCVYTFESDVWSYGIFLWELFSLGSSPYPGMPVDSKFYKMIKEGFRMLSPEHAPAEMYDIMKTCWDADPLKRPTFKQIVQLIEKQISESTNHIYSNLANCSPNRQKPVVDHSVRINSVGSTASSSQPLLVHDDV
Sequence of KIT(V559D) (P10721 26-976 V559D): as the sequence (P10721 26-976 A829P) above, with V534D, P804A counted along it

| SMILES | remaining activity at 10 µM (KIT(A829P)) [%] | Percent control (KIT(V559D)) [%] | Percent control (TYRO3) [%] | Percent control (AXL) [%] | Percent control (FGFR3) [%] | Percent control (EPHB1) [%] | remaining binding at 10 µM (TYRO3; read-out: Percent control) [%] |
| --- | --- | --- | --- | --- | --- | --- | --- |
| C#Cc1cccc(Nc2ncnc3cc(OCCOC)c(OCCOC)cc23)c1 [Erlotinib] | 100 | – | – | – | – | – | – |
| Cc1ccc(NC(=O)c2ccc(CN3CCN(C)CC3)cc2)cc1Nc1nccc(-c2cccnc2)[n+]1[Pt-2]1([Cl])[NH2+]C2CCCCC2[NH2+]1 (stereo not shown) [1b, oxaliplatin-imatinib] | – | 0 | 80 | 100 | 94 | 94 | – |
| Cc1ccc(NC(=O)c2ccc(CN3CCN(C)CC3)cc2)cc1Nc1nccc(-c2cccnc2)n1 [Imatinib, reference compound] | 0.1 | – | 100 | 100 | 100 | 100 | – |
| COc1cc2c(Nc3ccc(Br)cc3F)ncnc2cc1OCC1CCN(C)CC1 [Vandetanib, reference compound] | 0.3 | – | – | – | – | – | 0.9 |
| COc1cc2c(Nc3ccc(Br)cc3F)[n+]([Pt-2]3([Cl])[NH2+]C4CCCCC4[NH2+]3)cnc2cc1OCC1CCN(C)CC1 (stereo not shown) [3b, oxaliplatin-vandetanib] | – | 0.5 | 0 | 19 | – | 31 | – |
| C#Cc1cccc(Nc2c3cc(OCCOC)c(OCCOC)cc3nc[n+]2[Pt@SP2-2]([NH3+])([NH3+])[Cl])c1 [2a, cisplatin-erlotinib] | – | 88 | 85 | 93 | 89 | 90 | – |
